Experimental data taken from patent publication US10175256B2, “Compositions and methods utilizing lysophosphatidylcholine scaffolds” (National University Of Singapore, priority 2013, dated 2019).
Values joined by “and” are separate entries in the source; they are usually repeats but may differ in a detail not shown here. Identical values can stand only once.

Assays:
mouse Mfsd2a [1] = assay: Cell-based free fatty acid transport/uptake in Mfsd2a expressing HEK293 cells (mass spectrometry, TLC; Table 1); settings: MS, replicate columns; for Amount of each lipid species, mol percent in total phospholipid analysed: mock HEK293 cells incubated with 100 uM Arachidonic fatty acid/BSA complex overnight
Procedure: (§1) FIG. 12. […] Std: free [^14C]-DHA. b. TLC analysis of phospholipids and neutral lipids of HEK293 cells transfected with mouse Mfsd2a and mutants after overnight incubation with 100 μM [^14C]-oleate. TLC protocol used was described in Methods. PC: phosphatidylcholine, PE: phosphatidylethanolamine, TAG: triglyceride, CE: cholesteryl ester.
(§2) For tissue lipid analysis, brain, liver, and heart of female WT and KO mice with age of 7-8 weeks born to HET mothers, and brains from e18.5 embryos were collected and immediately frozen with liquid nitrogen until extraction. Lipid extraction was followed by chloroform/methanol method. For cell-based free fatty acid transport, lipids from HEK293 cells expressing mouse Mfsd2a and mock controls after overnight treatment with 100 μM docosahexaenoic, arachidonic, eicosapentaenoic, alpha-linolenic, linoleic, oleic, palmitic acids in BSA complex were extracted using HIP buffer (hexane:iso-propanol 3:2, per volume) and dried under N2 gas. Phospholipid species were measured by high performance liquid chromatography (HPLC) 1100 system (Agilent) coupled with an Triple Quadrupole/Ion Trap mass spectrometer (4000Qtrap, Applied Biosystem). Levels of individual phospholipid species were analyzed as described previously and quantified using spiked internal standards that includes PC-14:0/14:0, PE-14:0/14:0, PS-14:0/14:0 (Avanti Polar Lipids, Alabaster, Ala., USA), and dioctanoyl PI (Echelon Biosciences, Inc., Salt Lake City, Utah, USA).

mouse Mfsd2a [2] = target: T1, mouse Mfsd2a (Mus musculus, UniProt Q9DA75); assay: as above; settings: replicate columns; for Amount of each lipid species, mol percent in total phospholipid analysed: Mfsd2a expressing HEK293 cells incubated with 100 uM Arachidonic fatty acid/BSA complex overnight; for Amount of lipid species, mol percent in total phospholipid analysed / Amount of each lipid species normalized to internal standard, mol percent in total phospholipid analysed: Mfsd2a expressing HEK293 cells
T1 construct: expressed in transfected cells; host or cells: HEK293
T1 sequence (Q9DA75 1-534): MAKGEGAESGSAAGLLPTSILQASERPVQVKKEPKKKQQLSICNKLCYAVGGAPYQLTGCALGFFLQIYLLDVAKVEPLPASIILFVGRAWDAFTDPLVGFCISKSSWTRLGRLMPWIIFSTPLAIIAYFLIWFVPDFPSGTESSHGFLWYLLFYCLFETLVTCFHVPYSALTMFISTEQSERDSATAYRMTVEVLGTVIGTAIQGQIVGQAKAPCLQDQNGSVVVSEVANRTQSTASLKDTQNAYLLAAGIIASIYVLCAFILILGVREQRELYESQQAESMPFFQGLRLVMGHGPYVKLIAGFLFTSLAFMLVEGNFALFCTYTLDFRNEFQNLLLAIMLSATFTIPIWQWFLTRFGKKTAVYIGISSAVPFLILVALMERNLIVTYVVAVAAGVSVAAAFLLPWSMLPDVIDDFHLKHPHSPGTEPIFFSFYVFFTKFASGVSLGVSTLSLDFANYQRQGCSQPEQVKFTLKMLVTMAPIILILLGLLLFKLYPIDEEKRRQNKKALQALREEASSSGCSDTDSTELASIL
Procedure: as §1, §2

| Structure (SMILES) | Amount of each lipid species, mol percent in total phospholipid analysed (mouse Mfsd2a [1]) | Amount of each lipid species, mol percent in total phospholipid analysed (mouse Mfsd2a [2]; MS) | Amount of each lipid species normalized to internal standard, mol percent in total phospholipid analysed (mouse Mfsd2a [1]; mock HEK293 cells, 100 uM Docosahexaenoic acid/BSA complex overnight) | Amount of each lipid species normalized to internal standard, mol percent in total phospholipid analysed (mouse Mfsd2a [1]; mock HEK293 cells, 100 uM Eicosapentaenoic acid/BSA complex overnight) | Amount of lipid species, mol percent in total phospholipid analysed (mouse Mfsd2a [1]; mock HEK293 cells, 100 uM Oleic fatty acid/BSA complex overnight) | Amount of lipid species, mol percent in total phospholipid analysed (mouse Mfsd2a [2]; 100 uM Alpha-linolenic fatty acid/BSA complex overnight) | Amount of lipid species, mol percent in total phospholipid analysed (mouse Mfsd2a [2]; 100 uM Linoleic fatty acid/BSA complex overnight) | Amount of each lipid species normalized to internal standard, mol percent in total phospholipid analysed (mouse Mfsd2a [2]; 100 uM Docosahexaenoic acid/BSA complex overnight, MS) | Amount of each lipid species normalized to internal standard, mol percent in total phospholipid analysed (mouse Mfsd2a [2]; 100 uM Eicosapentaenoic acid/BSA complex overnight, MS) | Amount of lipid species, mol percent in total phospholipid analysed (mouse Mfsd2a [2]; 100 uM Oleic fatty acid/BSA complex overnight, MS) |
| --- | --- | --- | --- | --- | --- | --- | --- | --- | --- | --- |
| CCCCCCCCCCCCCCCC(=O)OC[C@@H](O)COP(=O)(O)OC1[C@H](O)[C@H](O)C(O)[C@H](O)[C@H]1O (stereo partly drawn) [LPI 16:0] | 0.003611 mol percent and 0.003895 mol percent and 0.00338 mol percent | 0.003583 mol percent and 0.003359 mol percent and 0.003156 mol percent and 0.002319 mol percent |  |  |  |  |  |  |  |  |
| CCCCCCCCCCCCCCCCCC/C=C\OC[C@@H](O)COP(=O)(O)OCCN [Lyso PE20:0p] |  |  | 0.1737 mol percent and 0.2656 mol percent and 0.1958 mol percent | 0.4498 mol percent and 0.1976 mol percent and 0.1696 mol percent | 0.1867 mol percent and 0.2217 mol percent and 0.228 mol percent | 0.4144 mol percent and 0.2832 mol percent and 0.3195 mol percent and 0.1905 mol percent | 0.1851 mol percent and 0.2714 mol percent and 0.2999 mol percent and 0.1862 mol percent | 0.1999 mol percent and 0.2885 mol percent and 0.2131 mol percent and 0.1906 mol percent | 0.1715 mol percent and 0.2585 mol percent and 0.309 mol percent and 0.2898 mol percent | 0.184 mol percent and 0.3068 mol percent and 0.1973 mol percent and 0.2871 mol percent |
| CCCCCCCCCCCCCC/C=C\OC[C@@H](O)COP(=O)(O)OCCN [LysoPE16:0p] | 3.439 mol percent and 2.895 mol percent and 2.928 mol percent | 2.79 mol percent and 2.681 mol percent and 2.307 mol percent and 2.64 mol percent |  |  |  |  |  |  |  |  |
